Tests used:
Assay type in all cases: functional
NCI-H226 [1] = assay: Cytotoxicity against human NCI-H226 cells after 72 hrs by MTT assay; conditions: NCI-H226, 72 h
A549 [2] = assay: Cytotoxicity against human A549 cells after 72 hrs by MTT assay; conditions: A549, 72 h, read-out: pLC50 (the source's name) (converted)
A549 [3] = assay: Growth inhibition of human A549 cells after 72 hrs by MTT assay; conditions: A549, 72 h
NCI-H226 [4] = assay: Growth inhibition of human NCI-H226 cells after 72 hrs by MTT assay; conditions: NCI-H226, 72 h

Compound	LC50 (NCI-H226 [1])	CC50 (A549 [2])	GI50 (A549 [3])	GI50 (NCI-H226 [4])
C[n+]1c(/C=C/c2ccc(N(c3ccccc3)c3ccccc3)cc2)cccc1/C=C/c1ccc(N(c2ccccc2)c2ccccc2)cc1	33.1 µM	39.8 µM	3.16 µM	2 µM
CCCCN(CCCC)c1ccc(-c2ccc(/C=C/c3cccc(/C=C/c4ccc(-c5ccc(N(CCCC)CCCC)s5)s4)[n+]3C)s2)s1	–	–	4.79 µM	1 µM
CN(C)c1ccc(/C=C/c2cccc(/C=C/c3ccc(N(C)C)cc3)[n+]2C)cc1	13.8 µM	13.2 µM	0.372 µM	0.0447 µM
CN(C)c1ccc(/C=C/c2cc[n+](C)cc2)cc1	–	–	1.58 µM	10 µM
CN(C)c1ccc(/C=C/c2ccc3ccccc3[n+]2C)cc1	–	70.8 µM	1.55 µM	0.631 µM
Cn1cccc1/C=C/c1cc[n+](C)cc1	–	–	1.66 µM	100 µM
CN(C)c1ccc(/C=C(\C#N)c2cccc[n+]2C)cc1	–	–	3.8 µM	19.5 µM
Cn1cccc1/C=C/c1cccc[n+]1C	–	–	22.9 µM	100 µM
CCCCN(CCCC)c1ccc(-c2ccc(/C=C/c3ccc4ccccc4[n+]3C)s2)s1	10 µM	–	0.01 µM	0.0457 µM
C[n+]1c(/C=C/c2ccc(-c3ccccc3)s2)ccc2ccccc21	38 µM	–	2 µM	1.45 µM
